Patent publication US8106039B2, “Metal complex phosphatidyl-inositol-3-kinase inhibitors” (The Trustees Of The University Of Pennsylvania, priority 2008, dated 2012)

Tests used:
[1] = test system: 1205Lu melanoma cell line; test: Cell proliferation (MTT) assay; type: cell-based, human; settings: increasing concentrations, 72 hours, FIG. 4B
Experimental: Cell Proliferation (MTT) Assay. Cells were plated into a 96-well plate at a density of 2.5×10^4 cells per ml and left to grow overnight. Cells were treated with increasing concentrations of E5E1 (0.03-30 μM), […] or LY 294002 (Calbiochem, San Diego, Calif.) (0.01-30 μM) in triplicate. In each instance cells were grown for 72 hours before being treated with 20 μl of MTT for 3 hours (Sigma). After this time, the media was rapidly removed and the MTT crystals were solubilized using DMSO. The resulting absorbance was read in a plate reader at 560 nm. Absorbance readings were subtracted from the value of blank wells, the reduction in cell growth was calculated as a percentage of control absorbance in the absence of any drug.

[2] = test system: phospho-AKT in a melanoma cell line; test: Western blot analysis of phospho-AKT in melanoma cells; type: cell-based, human; settings: FIG. 4A
From the text: Western Blot Analysis. Proteins were extracted and blotted for as described in (41). […] Antibodies to phospho-AKT and total AKT were from Cell Signaling Technology, (Beverly, Mass.). The monoclonal antibody to β-actin was from Sigma.

[3] = target: T1, human PI3Kγ catalytic domain (Homo sapiens, UniProt P48736); test: PI3K Kinase-Glo assay; type: biochemical; settings: for IC50: 1.4 pmoles PI3K, FIG. 3A, read-out: IC50 PI3Kγ inhibition
T1 construct: made in house; host or cells: baculovirus expression (virus obtained from the MRC, United Kingdom)
T1 sequence (P48736 144-1102 limits assumed): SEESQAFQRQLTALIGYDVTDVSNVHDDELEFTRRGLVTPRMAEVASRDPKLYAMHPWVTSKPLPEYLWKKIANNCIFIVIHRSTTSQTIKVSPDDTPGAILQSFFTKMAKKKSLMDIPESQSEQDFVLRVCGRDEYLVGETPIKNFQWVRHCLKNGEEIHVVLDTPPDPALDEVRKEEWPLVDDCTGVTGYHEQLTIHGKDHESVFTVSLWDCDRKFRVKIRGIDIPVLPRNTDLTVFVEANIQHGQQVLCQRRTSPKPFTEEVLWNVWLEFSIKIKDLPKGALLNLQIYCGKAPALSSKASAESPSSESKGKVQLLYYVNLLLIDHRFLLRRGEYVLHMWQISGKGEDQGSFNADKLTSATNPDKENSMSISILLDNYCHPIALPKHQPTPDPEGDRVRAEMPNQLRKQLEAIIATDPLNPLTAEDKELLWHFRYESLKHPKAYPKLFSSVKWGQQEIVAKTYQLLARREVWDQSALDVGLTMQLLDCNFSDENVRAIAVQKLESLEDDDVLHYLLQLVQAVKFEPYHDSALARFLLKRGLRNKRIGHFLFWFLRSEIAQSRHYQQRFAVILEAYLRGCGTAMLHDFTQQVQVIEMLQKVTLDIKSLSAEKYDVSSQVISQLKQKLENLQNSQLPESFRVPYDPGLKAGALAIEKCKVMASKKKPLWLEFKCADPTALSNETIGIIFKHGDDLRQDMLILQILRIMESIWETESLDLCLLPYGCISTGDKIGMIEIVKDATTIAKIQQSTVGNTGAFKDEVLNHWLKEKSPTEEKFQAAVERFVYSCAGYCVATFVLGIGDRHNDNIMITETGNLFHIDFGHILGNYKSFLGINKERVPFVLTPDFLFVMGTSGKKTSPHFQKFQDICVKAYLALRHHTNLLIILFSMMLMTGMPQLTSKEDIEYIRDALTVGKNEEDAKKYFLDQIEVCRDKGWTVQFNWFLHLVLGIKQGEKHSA
Experimental: PI3K Kinase-Glo Assay. Recombinantly expressed human PI3Kγ catalytic domain was preincubated with various concentration of inhibitors with a final DMSO concentration of 2% in reaction buffer (20 mM Tris pH 7.5, 100 mM NaCl, 10 mM MgCl2) for 1 hour at room temperature before this mixture was added to a solution of 0.1 mg/mL D-myo-Phosphatidylinositol 4,5-biphosphate (PtdIns (4,5)P2, Echelon Biosciences) and 10 μM ATP. 14 pmoles PI3K was used in compounds DW12, DW12Me, EAd125 comparison and 1.4 pmoles PI3K was used for compounds E5, E5E2, E5E1 measurements. The kinase reaction was carried out in a 50 μL final volume in a 96-well microtiter plate at 37° C. for 3 hours before 50 μL Kinase-Glo® (Promega) developing solution was added into the mixture to generate a luminescence signal. The signal was recorded using the PerkinElmer Wallac 1420 luminometer using a luminescence filter. Data were processed and IC50 values were derived from using 2% DMSO and with no kinase as controls and a sigmoidal dose response curve fitting by GraphPad Prism.

[4] = test system: melanoma cells grown as 3D collagen-implanted spheroids; test: 3D spheroid growth / invasion; type: cell-based, human; settings: 30 μM; 72 hours; FIG. 4C
Experimental: 3D Spheroid Growth. Melanoma spheroids were prepared using the liquid overlay method. Briefly, […] of melanoma cells (25,000 cells per ml) were added to a 96-well plate coated with 1.5% agar (Difco, Sparks MD). Plates were left to incubate for 72 hours, by which time cells had organized into 3D spheroids. Spheroids were then harvested using a P1000 pipette. The media was removed and the spheroids were implanted into a gel of bovine collagen I containing EMEM, L-glutamine and 2% FBS. Normal 2% melanoma media was overlaid on top of the solidified collagen. Spheroids were treated with either E5E1 (10-30 μM), or E5E2 (10-30 μM), before being left to grow for 72 hours. Spheroids were then washed twice in PBS before being treated with calcein-AM, ethidium bromide (Molecular Probes, Eugene, Oreg.) for 1 hour at 37° C., according to the manufacturer's instruction. After this time, pictures of the invading spheroids were taken using a Nikon-300 inverted fluorescence microscope.

[5] = target: BRAF mutants (Leu513 mutated to valine and alanine); test: BRAF kinase assay with site directed mutants; type: biochemical, human; settings: FIG. 6B
Experimental: BRAF kinase assay—Recombinantly expressed GST-MEK diluted in TTBS buffer (20 mM Tris pH 7.5, 150 mM NaCl, 0.05% TWEEN-20) to 50 μg/mL in a volume of 100 μL was bound to the wells of a 96-well glutathione coated plate (Pierce Biotechnology). 1 μL of compound with 2× serial dilutions in a 100% DMSO stock solution were added to a mixture of 50 μL of a buffer containing 50 mM HEPES pH 7.0 with 0.7 pmoles of BRAF kinase. This mixture was incubated at room temperature for 1 hour before it was added into the GST-MEK bound wells of the 96-well plate. An additional 50 μL of phosphorylation buffer (50 mM HEPES pH 7.0, 200 mM NaCl, 10 mM MgCl2, 200 μM ATP) was added into the well mixture to start the kinase reaction at 37° C. for 30 min with intermittent shaking. The kinase reaction was stopped by extensive washing with TTBS buffer and a 1:5000 dilution of Anti-phospho-MEK1 (Ser218/222)/MEK2 (Ser222/226) monoclonal antibody (Millipore) in TTBS was subsequently added into the wells and incubated for 1 hour with shaking. Goat Anti-Rabbit IgG (H+L)-HRP Conjugate (BioRad Laboratories) in a 1:5000 dilution was added into the wells to incubate at room temperature with shaking. Finally, the SuperSignal ELISA Pico chemiluminescent substrate (Pierce Biotechnology) was added into the wells. The luminescence signal was recorded with a luminescence filter using a Wallac 1420 luminometer (PerkinElmer). […]

[6] = target: BRAF^WT (Homo sapiens, UniProt P15056); test: BRAF kinase assay (wild type); type: biochemical
BRAF^WT, sequence (P15056 whole entry): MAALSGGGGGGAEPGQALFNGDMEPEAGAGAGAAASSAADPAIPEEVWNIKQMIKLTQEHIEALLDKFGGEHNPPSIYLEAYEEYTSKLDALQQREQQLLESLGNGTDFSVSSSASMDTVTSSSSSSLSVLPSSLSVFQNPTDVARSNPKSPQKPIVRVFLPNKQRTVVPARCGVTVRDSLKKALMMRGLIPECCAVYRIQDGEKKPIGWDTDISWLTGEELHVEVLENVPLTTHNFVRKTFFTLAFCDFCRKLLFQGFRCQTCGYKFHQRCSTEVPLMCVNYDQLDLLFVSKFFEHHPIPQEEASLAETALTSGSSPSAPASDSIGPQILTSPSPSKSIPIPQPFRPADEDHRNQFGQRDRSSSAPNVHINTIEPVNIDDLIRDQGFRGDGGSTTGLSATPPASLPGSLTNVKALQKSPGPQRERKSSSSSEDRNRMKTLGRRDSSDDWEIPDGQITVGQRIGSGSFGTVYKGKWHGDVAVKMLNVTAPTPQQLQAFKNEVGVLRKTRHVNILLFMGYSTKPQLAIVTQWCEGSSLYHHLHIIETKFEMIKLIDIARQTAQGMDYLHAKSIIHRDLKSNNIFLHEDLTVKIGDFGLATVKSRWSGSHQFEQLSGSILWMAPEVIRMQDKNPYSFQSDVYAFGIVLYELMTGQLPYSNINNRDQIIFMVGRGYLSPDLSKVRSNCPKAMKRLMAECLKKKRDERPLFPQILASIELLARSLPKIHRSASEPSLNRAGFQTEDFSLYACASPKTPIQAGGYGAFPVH
Experimental: (§1) BRAF kinase assay—Recombinantly expressed GST-MEK diluted in TTBS buffer (20 mM Tris pH 7.5, 150 mM NaCl, 0.05% TWEEN-20) to 50 μg/mL in a volume of 100 μL was bound to the wells of a 96-well glutathione coated plate (Pierce Biotechnology). 1 μL of compound with 2× serial dilutions in a 100% DMSO stock solution were added to a mixture of 50 μL of a buffer containing 50 mM HEPES pH 7.0 with 0.7 pmoles of BRAF kinase. This mixture was incubated at room temperature for 1 hour before it was added into the GST-MEK bound wells of the 96-well plate. An additional 50 μL of phosphorylation buffer (50 mM HEPES pH 7.0, 200 mM NaCl, 10 mM MgCl2, 200 μM ATP) was added into the well mixture to start the kinase reaction at 37° C. for 30 min with intermittent shaking. The kinase reaction was stopped by extensive washing with TTBS buffer and a 1:5000 dilution of Anti-phospho-MEK1 (Ser218/222)/MEK2 (Ser222/226) monoclonal antibody (Millipore) in TTBS was subsequently added into the wells and incubated for 1 hour with shaking. Goat Anti-Rabbit IgG (H+L)-HRP Conjugate (BioRad Laboratories) in a 1:5000 dilution was added into the wells to incubate at room temperature with shaking. Finally, the SuperSignal ELISA Pico chemiluminescent substrate (Pierce Biotechnology) was added into the wells. The luminescence signal was recorded with a luminescence filter using a Wallac 1420 luminometer (PerkinElmer).

[7] = target: T2, MST1 (Homo sapiens, UniProt Q13043); test: MST1 kinase assay; type: biochemical; settings: inhibitor concentration of 4 μM; FIG. 3B
T2 sequence (Q13043 1-487): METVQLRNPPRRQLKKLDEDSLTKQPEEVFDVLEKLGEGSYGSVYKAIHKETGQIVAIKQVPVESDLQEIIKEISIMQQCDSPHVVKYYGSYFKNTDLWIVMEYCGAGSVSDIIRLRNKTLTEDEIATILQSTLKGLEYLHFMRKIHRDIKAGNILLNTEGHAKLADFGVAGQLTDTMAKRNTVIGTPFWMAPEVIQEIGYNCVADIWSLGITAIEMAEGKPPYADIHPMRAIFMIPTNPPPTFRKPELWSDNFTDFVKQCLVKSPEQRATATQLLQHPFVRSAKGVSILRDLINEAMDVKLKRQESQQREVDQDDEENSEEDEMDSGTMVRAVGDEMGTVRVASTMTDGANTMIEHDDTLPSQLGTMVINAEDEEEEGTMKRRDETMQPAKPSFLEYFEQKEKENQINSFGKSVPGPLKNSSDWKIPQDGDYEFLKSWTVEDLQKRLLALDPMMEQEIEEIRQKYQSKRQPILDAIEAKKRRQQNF
Experimental: MST1 kinase assay—Kinase assays were performed using labeled γ-P^32 ATP and the incorporation of labeled phosphate onto the substrate FOXO was monitored. Kinase assays were performed using kinase buffer containing 10 mM Tris pH 7.5, 10 mM MgCl2, 1 mM dithiothreitol (DTT), 1 mM phenylmethylsulfonyl fluoride (PMSF) and a cocktail containing phosphatase inhibitor. 5 μCi of labeled γ-P^32 ATP and a final concentration of 200 μM of ATP were used for each reaction. 10 nM of the enzyme was pre-incubated for 30 min with various concentrations of inhibitor and an equivalent amount of DMSO was used as a control. After 30 min of incubation of the enzyme with the inhibitor, 1 μg of substrate was added. The reaction was initiated by addition of ATP. All reactions were incubated at 37° C. for 30 min. and then stopped with SDS gel-loading dye; subsequently samples were heated for 3 min and loaded onto a 16% Tris-glycine gel (Novagen). The bands were visualized using high sensitivity Kodak film and the results were quantified using the software ImageJ.

[8] = target: BRAF^V600E (Homo sapiens, UniProt P15056, V600E); test: BRAF kinase assay (V600E); type: biochemical; settings: inhibitor concentration of 4 μM; FIG. 3B
BRAF^V600E, sequence (P15056 whole entry V600E): as the sequence (P15056 whole entry) above, with V600E counted along it
Experimental: as §1

[9] = target: PAK1 (Homo sapiens, UniProt Q13153); test: PAK1 kinase assay; type: biochemical; settings: inhibitor concentration of 4 μM; FIG. 3B
PAK1, sequence (Q13153 whole entry): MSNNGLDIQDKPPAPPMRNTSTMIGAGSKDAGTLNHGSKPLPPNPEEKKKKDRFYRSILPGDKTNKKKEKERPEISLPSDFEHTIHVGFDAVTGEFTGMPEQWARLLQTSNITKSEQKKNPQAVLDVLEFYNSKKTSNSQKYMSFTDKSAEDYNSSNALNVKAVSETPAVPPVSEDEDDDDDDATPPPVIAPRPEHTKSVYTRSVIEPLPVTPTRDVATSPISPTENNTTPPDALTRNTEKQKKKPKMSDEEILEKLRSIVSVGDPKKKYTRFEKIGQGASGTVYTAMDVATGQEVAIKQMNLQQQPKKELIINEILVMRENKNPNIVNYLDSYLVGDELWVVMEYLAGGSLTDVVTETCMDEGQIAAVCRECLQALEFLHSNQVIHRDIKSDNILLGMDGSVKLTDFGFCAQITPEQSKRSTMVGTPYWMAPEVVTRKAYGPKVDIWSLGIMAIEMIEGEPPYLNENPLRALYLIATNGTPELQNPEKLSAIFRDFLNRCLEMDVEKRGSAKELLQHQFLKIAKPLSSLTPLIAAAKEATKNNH
Experimental: PAK1 kinase assay—Kinase assays were performed using labeled γ-P^32 ATP and the incorporation of labeled phosphate onto the myelin basic protein (MBP) substrate was monitored. Different concentrations of compound inhibitor were incubated with 0.1 nM PAK1 kinase in 20 mM MOPS pH 7, 30 mM MgCl2, 1 mM EDTA, 0.8 μg/μL bovine serum albumin, 5% DMSO (resulting from the inhibitor stock solution), in the presence of 25 μg of MBP substrate for 20 minutes. Reactions were initiated by adding ATP to a final concentration of 1 μM including 0.2 μCi/μL γ-^32P ATP to a final volume of 25 μL. The reactions were terminated by spotting 17.5 μL onto a circular P81 phosphocellulose paper (diameter 2.1 cm), followed by washing three times with 0.75% phosphoric acid and one time with acetone. The dried P81 papers were transferred to scintillation vials and 4 ml of scintillation cocktail was added. The counts per minute (CPM) were measured with a scintillation counter and the enzyme activity in the presence of the inhibitor was calculated as a percentage of the control sample corrected by the background.

SMILES | cell proliferation (MTT) [1] | block of constitutive activity of AKT (phospho-AKT) [2] | IC50 [3] | invasion of melanoma cells from 3D spheroids [4] | IC50 [5] | inhibition of BRAF^WT ([6]; inhibitor concentration of 4 μM, FIG. 3B) | inhibition against wild-type BRAF ([6]; inhibitor concentration of 10 μM, FIG. 6B) | inhibition of MST1 [7] | inhibition of BRAF^V600E [8] | PI3K inhibition / inhibitory potency (in words) ([3]; comparison among the inhibitors, FIG. 2C, FIG. 9) | inhibition of PAK1 [9]
O=c1cc(N2CCOCC2)oc2c(-c3ccccc3)cccc12 [LY294002, 2-(4-morpholinyl)-8-phenyl-4H-1-benzopyran-4-one, reference compound] | inhibition of cell proliferation |  |  |  |  |  |  |  |  |  | 
CN1C(=O)c2c(c3c4cc(O)ccc4[n]4c3c3c2cc(F)c[n+]3[Ru-2]42356([C]#[O+])[CH]4[CH]2[CH]3[C]5(C(=O)NC(C)(CO)CO)[CH]46)C1=O (single isomer, unassigned) [Compound E5E1] | inhibition of cell proliferation | block the constitutive activity of AKT in a concentration dependent manner | 0.041 µM | completely blocked |  |  |  |  |  |  | 
CN1C(=O)c2c(c3c4cc(O)ccc4[n]4c3c3c2cc(F)c[n+]3[Ru-2]42356([C]#[O+])[CH]4[CH]2[CH]3[C]5(C(=O)NC(C)(CO)CO)[CH]46)C1=O (single isomer, unassigned) [Compound E5E2] |  |  | 0.039 µM |  | ~10 µM | did not show appreciable inhibition | no detectable inhibition | did not show appreciable inhibition | did not show appreciable inhibition | potent | did not show appreciable inhibition
